What was measured:
Assay in all cases: relative viability (nuclei count vs DMSO), 5 days (fraction); higher = more cells survive
[1] = compound: CC1CC(=O)N(C2=CN=C(N=C2N1C3CCCC3)NC4=C(C=C(C=C4)C(=O)NC5CCN(CC5)C)OC)C [NPK76-II-72-1] + CCNC(=O)c1noc(-c2cc(C(C)C)c(O)cc2O)c1-c1ccc(CN2CCOCC2)cc1 [Luminespib] (partner 0.01 µM)
In short: (§1)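 Lung cancer cell lines were pin-tool dosed in 1536-well plates on the day after seeding, with either a lone drug or a fixed anchor-drug dose plus five library-drug doses (not always all listed) in √10 steps. Nuclei were counted on 4× images after 5 days. Relative viability is the ratio of treated-well to vehicle-well nuclei counts, with each value a median of duplicate plates.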

[2] = compound: CC1CC(=O)N(C2=CN=C(N=C2N1C3CCCC3)NC4=C(C=C(C=C4)C(=O)NC5CCN(CC5)C)OC)C [NPK76-II-72-1] + N=C(N)NC(=N)NCCc1ccccc1 [Phenformin] (partner 250 µM)
In short: as §1

[3] = compound: CC1CC(=O)N(C2=CN=C(N=C2N1C3CCCC3)NC4=C(C=C(C=C4)C(=O)NC5CCN(CC5)C)OC)C [NPK76-II-72-1] + Nc1ncn([C@H]2C[C@H](O)[C@@H](CO)O2)c(=O)n1 [Decitabine] (partner 2 µM)
In short: as §1

BI-2536 + Linsitinib = compound: CC[C@@H]1C(=O)N(C)c2cnc(Nc3ccc(C(=O)NC4CCN(C)CC4)cc3OC)nc2N1C1CCCC1 [BI-2536] + C[C@]1(O)C[C@@H](c2nc(-c3ccc4ccc(-c5ccccc5)nc4c3)c3c(N)nccn32)C1 [Linsitinib] (partner 1 µM)
In short: as §1

Cell Line	relative viability ([1]; first compound 0.01 µM)	relative viability ([1]; first compound 0.03162 µM)	relative viability ([1]; first compound 0.1 µM)	relative viability ([1]; first compound 0.3162 µM)	relative viability ([1]; first compound 1 µM)	relative viability ([2]; first compound 0.01 µM)	relative viability ([2]; first compound 0.03162 µM)	relative viability ([2]; first compound 0.1 µM)	relative viability ([2]; first compound 0.3162 µM)	relative viability ([2]; first compound 1 µM)	relative viability ([3]; first compound 0.01 µM)	relative viability ([3]; first compound 0.03162 µM)	relative viability ([3]; first compound 0.1 µM)	relative viability ([3]; first compound 0.3162 µM)	relative viability ([3]; first compound 1 µM)	relative viability (BI-2536 + Linsitinib; first compound 0.01 µM)	relative viability (BI-2536 + Linsitinib; first compound 0.03162 µM)	relative viability (BI-2536 + Linsitinib; first compound 0.1 µM)	relative viability (BI-2536 + Linsitinib; first compound 0.3162 µM)	relative viability (BI-2536 + Linsitinib; first compound 1 µM)
LC-2-ad	0.979	1.12	0.955	1.04	1.16	0.531	0.607	0.558	0.494	0.665	0.715	0.774	0.809	0.776	0.864	0.891	0.85	0.382	0.15	0.143
COR-L 105	0.782	0.642	0.934	0.508	0.704	0.491	0.541	0.409	0.474	0.551	0.622	0.65	0.448	0.616	0.69	0.829	0.915	0.946	0.277	0.312
NCI-H1355	0.678	0.716	0.756	0.67	0.763	0.408	0.458	0.455	0.45	0.456	0.349	0.359	0.338	0.315	0.344	0.877	0.889	0.856	0.227	0.178
H3255	0.871	0.76	0.55	0.675	0.891	0.365	0.326	0.376	0.31	0.37	0.622	0.58	0.614	–	0.688	0.906	1.03	0.903	0.227	0.226
NCI-H1993	0.848	0.87	0.925	0.764	0.818	0.55	0.49	0.515	0.553	0.521	0.604	0.624	0.61	0.474	0.678	0.709	0.637	0.579	0.528	0.611
NCI-H1734	0.167	0.178	0.189	0.17	0.186	0.374	0.38	0.379	0.427	0.425	0.49	0.456	0.479	0.479	0.525	0.947	0.896	0.859	0.238	0.228
HOP-62	0.975	1.04	0.885	0.789	0.992	0.622	0.648	0.615	0.637	0.683	0.202	0.238	0.222	0.208	0.203	0.89	1	0.914	0.135	0.142
LOU-NH91	0.305	0.324	0.347	0.33	0.345	0.621	0.709	0.706	0.563	0.884	0.794	0.849	0.793	0.735	0.875	0.968	0.925	1.04	0.691	0.289
PC-14	0.133	0.125	0.239	0.132	0.164	0.562	0.462	0.585	0.585	0.628	0.206	0.286	0.226	0.259	0.222	0.988	0.987	0.943	0.727	0.0823
NCI-H1437	1.03	1.13	1.09	1.03	1.08	0.312	0.288	0.297	0.293	0.333	0.579	0.523	0.531	0.558	0.641	1.03	0.901	0.941	0.123	0.0942
NCI-H460	0.0406	0.0404	0.0346	0.0272	0.0329	0.501	0.512	0.582	0.522	0.522	0.432	0.492	0.521	0.455	0.47	0.844	0.755	0.28	0.0093	0.0128
NCI-H1666	0.977	1.03	0.987	0.924	1.06	0.509	0.581	0.577	0.584	0.583	0.809	0.755	0.705	0.713	0.733	0.86	0.736	0.762	0.224	0.276
NCI-H1651	0.925	0.995	0.698	0.743	0.852	0.377	0.314	0.314	0.307	0.318	0.611	0.645	0.606	0.589	0.604	0.976	1.01	0.878	0.119	0.0863

Source: the supplement of paper PMC10307832
